By pKi is commonly meant the Ki on a negative log10 scale, so that one unit is a factor of ten.

The test concerns the target NR2B-subtype NMDA receptors (Rattus norvegicus (Rat), UniProt P35439+Q00960). Put plainly: Radioligand binding assay (3H Ro 25-6981 competition, rat forebrain membranes). As to conditions: 3H Ro 25-6981 (4 nM). Here is the method: Radioligand Binding Assay. Binding experiments to determine binding to NR2B-subtype NMDA receptors were performed on forebrains of 8-10 weeks old male Sprague Dawley rats (Harlan, Netherlands) using ^3H Ro 25-6981 (Mutel V; Buchy D; Klingelschmidt A; Messer J; Bleuel Z; Kemp J A; Richards J G. Journal of Neurochemistry, 1998, 70(5):2147-2155. Rats were decapitated without anesthesia using a Guillotine (approved by animal ethics committee) and the harvested brains were snap-frozen and stored at −80° C. for 3-6 months for membrane preparation.
For membrane preparation, rat forebrains were thawed on ice for 20 minutes in homogenization buffer composed of 50 mM KH2PO4 (pH adjusted to 7.4 with KOH), 1 mM EDTA, 0.005% Triton X 100 and protease inhibitor cocktail (Sigma Aldrich). Thawed brains were homogenized using a Dounce homogenizer and centrifuged at 48000×g for 20 min. The pellet was resuspended in cold buffer and homogenized again using a Dounce homogenizer. Subsequently, the homogenate was aliquoted, snap-frozen and stored at −80° C. for not more than 3-4 months.
To perform the competition binding assay, thawed membrane homogenate was added to each well of a 96-well plate (20 μg/well). The experimental compounds were serially diluted in 100% DMSO and added to each row of the assay plate to achieve desired compound concentrations, keeping the DMSO concentration in the assay plate at 1.33% of the final reaction volume. Next, ^3H Ro 25-6981 (4 nM) was added to the assay plate. After incubation for 1 hr at room temperature, the membrane bound radioligand was harvested on to GF/B filter plates (treated with 0.5% PEI for 1 hr at room temperature). The filter plates were dried at 50° C. for 20 mins, incubated with microscint 20 for 10 minutes and finally, the counts were read on TopCount (Perkin Elmer).

Each structure is given as a SMILES string. pKi: −log10 of the molar value. Where two headings read alike, the source gives them in different places.

Sequence of NR2B-subtype NMDA receptors (Q00960 27-1482, other chains not shown): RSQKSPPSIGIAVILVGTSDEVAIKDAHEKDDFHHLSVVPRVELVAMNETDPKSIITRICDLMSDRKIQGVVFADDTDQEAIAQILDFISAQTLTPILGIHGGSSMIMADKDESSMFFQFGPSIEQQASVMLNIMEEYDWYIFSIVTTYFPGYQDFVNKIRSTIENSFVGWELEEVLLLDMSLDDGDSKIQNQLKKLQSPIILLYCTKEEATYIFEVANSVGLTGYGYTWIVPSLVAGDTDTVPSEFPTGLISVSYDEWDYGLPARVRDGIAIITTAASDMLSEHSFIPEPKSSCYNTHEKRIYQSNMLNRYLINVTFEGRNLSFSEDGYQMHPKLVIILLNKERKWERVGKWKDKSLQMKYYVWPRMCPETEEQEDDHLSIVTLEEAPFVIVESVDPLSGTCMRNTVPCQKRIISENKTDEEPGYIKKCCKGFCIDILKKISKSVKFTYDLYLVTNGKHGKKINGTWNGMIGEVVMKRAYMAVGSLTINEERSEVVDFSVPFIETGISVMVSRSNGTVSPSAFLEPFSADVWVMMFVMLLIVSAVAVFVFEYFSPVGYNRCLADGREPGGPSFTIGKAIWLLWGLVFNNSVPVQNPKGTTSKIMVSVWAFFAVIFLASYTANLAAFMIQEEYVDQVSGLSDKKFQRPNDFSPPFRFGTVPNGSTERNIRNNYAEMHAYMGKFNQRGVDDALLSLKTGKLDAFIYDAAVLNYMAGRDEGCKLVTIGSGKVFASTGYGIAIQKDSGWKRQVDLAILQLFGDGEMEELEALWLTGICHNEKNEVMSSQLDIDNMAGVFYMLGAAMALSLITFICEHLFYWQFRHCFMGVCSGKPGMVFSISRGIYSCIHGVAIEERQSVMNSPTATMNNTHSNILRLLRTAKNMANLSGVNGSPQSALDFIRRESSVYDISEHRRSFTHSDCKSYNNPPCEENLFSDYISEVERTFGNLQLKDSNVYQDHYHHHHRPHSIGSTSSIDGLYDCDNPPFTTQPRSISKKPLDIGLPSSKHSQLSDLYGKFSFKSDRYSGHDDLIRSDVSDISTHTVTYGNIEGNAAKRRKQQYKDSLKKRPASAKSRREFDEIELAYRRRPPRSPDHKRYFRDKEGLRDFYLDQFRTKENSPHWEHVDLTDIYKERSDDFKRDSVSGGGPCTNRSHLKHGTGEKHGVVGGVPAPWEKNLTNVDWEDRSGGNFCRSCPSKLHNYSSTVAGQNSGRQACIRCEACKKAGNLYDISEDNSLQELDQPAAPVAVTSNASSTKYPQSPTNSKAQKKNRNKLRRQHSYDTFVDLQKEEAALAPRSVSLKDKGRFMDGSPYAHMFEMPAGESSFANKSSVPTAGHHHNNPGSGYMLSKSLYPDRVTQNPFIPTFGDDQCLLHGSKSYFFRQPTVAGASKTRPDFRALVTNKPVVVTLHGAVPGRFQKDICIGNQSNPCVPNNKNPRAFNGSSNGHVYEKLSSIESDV

Take `O=C1C(N2CCC(c3ccc(O)cc3)CC2)CON1Cc1ccc(F)cc1` (single isomer, unassigned) [Example 1, P-1, 2-(4-fluorobenzyl)-4-(4-(4-hydroxyphenyl)piperidin-1-yl)isoxazolidin-3-one]: for the setting “P-1, read-out: NR2B Binding Ki”, the pKi is 6.52.

Turning to `O=C1C(N2CCC(c3ccc(O)cc3)CC2)CON1Cc1ccc(F)cc1` (single isomer, unassigned) [Example 1, P-2, 2-(4-fluorobenzyl)-4-(4-(4-hydroxyphenyl)piperidin-1-yl)isoxazolidin-3-one], the pKi (listed as 1, P-2, read-out: NR2B Binding Ki) was 8.39.

For `Cc1ccc(CN2OCC(N3CCC(c4ccc(O)cc4)CC3)C2=O)cc1` (single isomer, unassigned) [Example 2, P-1, 4-(4-(4-hydroxyphenyl)piperidin-1-yl)-2-(4-methylbenzyl)isoxazolidin-3-one], the negative-log Ki (pKi) (listed as 2, P-1, read-out: NR2B Binding Ki) was 6.95.

As to `Cc1ccc(CN2OCCC(N3CC[C@@H](c4ccc(O)cc4)[C@H](F)C3)C2=O)cc1` (single isomer, unassigned) [Example 5, P-1], the pKi (listed as 5, P-1, read-out: NR2B Binding Ki) is 6.84.

With `Cc1ccc(CN2OCCC(N3CC[C@@H](c4ccc(O)cc4)[C@H](F)C3)C2=O)cc1` (single isomer, unassigned) [Example 5, P-2], for the setting “listed as 5, P-2, read-out: NR2B Binding Ki”, the pKi was 8.36.

Take `Cc1ccc(CN2OCCC(N3CCC(c4ccc(O)cn4)CC3)C2=O)cc1` (single isomer, unassigned) [Example 6, P-1, 4-(4-(5-hydroxypyridin-2-yl)piperidin-1-yl)-2-(4-methylbenzyl)-1,2-oxazinan-3-one]: the pKi (listed as 6, P-1, read-out: NR2B Binding Ki) is 8.19.

With `Cc1ccc(CN2OCCC(N3CCC(c4ccc(O)cn4)CC3)C2=O)cc1` (single isomer, unassigned) [Example 6, P-2, 4-(4-(5-hydroxypyridin-2-yl)piperidin-1-yl)-2-(4-methylbenzyl)-1,2-oxazinan-3-one], the pKi (listed as 6, P-2, read-out: NR2B Binding Ki) is 8.09.

For the compound `Cc1ccc(CN2OCCC(N3CC[C@H](c4ccc(O)cc4)[C@@H](F)C3)C2=O)cc1` (single isomer, unassigned) [Example 7, P-1], the pKi (listed as 7, P-1, read-out: NR2B Binding Ki) is 6.90.

`Cc1ccc(CN2OCCC(N3CC[C@H](c4ccc(O)cc4)[C@@H](F)C3)C2=O)cc1` (single isomer, unassigned) [Example 7, P-2]: where the note is “listed as 7, P-2, read-out: NR2B Binding Ki”, the pKi is 8.30.

With `Cc1ccc(CN2OCCC(N3CCN(c4ccc(O)cn4)CC3)C2=O)cc1` (single isomer, unassigned) [Example 8, P-1, 4-(4-(5-hydroxypyridin-2-yl)piperazin-1-yl)-2-(4-methylbenzyl)-1,2-oxazinan-3-one], the pKi (listed as 8, P-1, read-out: NR2B Binding Ki) was 7.24.

For `Cc1ccc(CN2OCCC(N3CCN(c4ccc(O)cn4)CC3)C2=O)cc1` (single isomer, unassigned) [Example 8, P-2, 4-(4-(5-hydroxypyridin-2-yl)piperazin-1-yl)-2-(4-methylbenzyl)-1,2-oxazinan-3-one], the pKi (listed as 8, P-2, read-out: NR2B Binding Ki) was 7.73.

Take `Cc1ccc(CN2OCC(N3CCC(c4ccc(O)cn4)CC3)C2=O)cc1` (single isomer, unassigned) [Example 9, P-1, 4-(4-(5-hydroxypyridin-2-yl)piperidin-1-yl)-2-(4-methylbenzyl)isoxazolidin-3-one]: for the setting “listed as 9, P-1, read-out: NR2B Binding Ki”, the pKi was 6.86.

Take `Cc1ccc(CN2OCC(N3CCC(c4ccc(O)cn4)CC3)C2=O)cc1` (single isomer, unassigned) [Example 9, P-2, 4-(4-(5-hydroxypyridin-2-yl)piperidin-1-yl)-2-(4-methylbenzyl)isoxazolidin-3-one]: the pKi (listed as 9, P-2, read-out: NR2B Binding Ki) was 7.92.

As to `Cc1ccc(CN2OCC(N3CCN(c4ccc(O)cn4)CC3)C2=O)cc1` (single isomer, unassigned) [Example 10, P-2, 4-(4-(5-hydroxypyridin-2-yl)piperazin-1-yl)-2-(4-methylbenzyl)isoxazolidin-3-one], the pKi (listed as 10, P-2, read-out: NR2B Binding Ki) is 7.97.

For `Cc1ccc(CN2OCCC(N3CCC(c4ccc(O)c(F)c4)C(F)C3)C2=O)cc1` (single isomer, unassigned) [Example 11, P-1, 4-(3-fluoro-4-(3-fluoro-4-hydroxyphenyl)piperidin-1-yl)-2-(4-methylbenzyl)-1,2-oxazinan-3-one], the pKi (listed as 11, P-1, read-out: NR2B Binding Ki) was 8.51.

`Cc1ccc(CN2OCCC(N3CCC(c4ccc(O)c(F)c4)C(F)C3)C2=O)cc1` (single isomer, unassigned) [Example 11, P-2, 4-(3-fluoro-4-(3-fluoro-4-hydroxyphenyl)piperidin-1-yl)-2-(4-methylbenzyl)-1,2-oxazinan-3-one]: under “listed as 11, P-2, read-out: NR2B Binding Ki”, the pKi was 7.41.

With `O=C1C(N2CC[C@@H](c3ccc(O)cc3)[C@H](F)C2)CCON1Cc1ccc(Cl)cc1` (single isomer, unassigned) [Example 12, P-1], the pKi (listed as 12, P-1, read-out: NR2B Binding Ki) was 8.41.

In the case of `O=C1C(N2CC[C@@H](c3ccc(O)cc3)[C@H](F)C2)CCON1Cc1ccc(Cl)cc1` (single isomer, unassigned) [Example 12, P-2], the pKi (listed as 12, P-2, read-out: NR2B Binding Ki) was 6.82.

With `O=C1C(N2CCC(c3ccc(O)c(F)c3)C(F)C2)CCON1Cc1ccc(F)cc1` (single isomer, unassigned) [Example 13, P-1, 4-(3-fluoro-4-(3-fluoro-4-hydroxyphenyl)piperidin-1-yl)-2-(4-fluorobenzyl)-1,2-oxazinan-3-one], the pKi (listed as 13, P-1, read-out: NR2B Binding Ki) is 6.44.

Turning to `O=C1C(N2CCC(c3ccc(O)c(F)c3)C(F)C2)CCON1Cc1ccc(F)cc1` (single isomer, unassigned) [Example 13, P-2, 4-(3-fluoro-4-(3-fluoro-4-hydroxyphenyl)piperidin-1-yl)-2-(4-fluorobenzyl)-1,2-oxazinan-3-one], the pKi (listed as 13, P-2, read-out: NR2B Binding Ki) is 8.39.

In the case of `O=C1C(N2CCC(c3ccc(O)c(F)c3)C(F)C2)CCON1Cc1ccc(Cl)cc1` (single isomer, unassigned) [Example 14, P-1, 2-(4-chlorobenzyl)-4-(3-fluoro-4-(3-fluoro-4-hydroxyphenyl)piperidin-1-yl)-1,2-oxazinan-3-one], the pKi (listed as 14, P-1, read-out: NR2B Binding Ki) was 7.01.

With `O=C1C(N2CCC(c3ccc(O)c(F)c3)C(F)C2)CCON1Cc1ccc(Cl)cc1` (single isomer, unassigned) [Example 14, P-2, 2-(4-chlorobenzyl)-4-(3-fluoro-4-(3-fluoro-4-hydroxyphenyl)piperidin-1-yl)-1,2-oxazinan-3-one], where the note is “listed as 14, P-2, read-out: NR2B Binding Ki”, the pKi is 8.55.

For `O=C1C(N2CC[C@@H](c3ccc(O)cc3)[C@H](F)C2)CCON1Cc1ccc(F)cc1` (single isomer, unassigned) [Example 15, P-1], the pKi (listed as 15, P-1, read-out: NR2B Binding Ki) was 6.41.

On to `O=C1C(N2CC[C@@H](c3ccc(O)cc3)[C@H](F)C2)CCON1Cc1ccc(F)cc1` (single isomer, unassigned) [Example 15, P-2], for which, where the note is “listed as 15, P-2, read-out: NR2B Binding Ki”, the pKi was 7.90.
